Laboratory results: US20220184071A1, “GEPOTIDACIN FOR USE IN THE TREATMENT OF BACTERIAL URINARY TRACT INFECTIONS” (GlaxoSmithKline Intellectual Property Development Limited, priority 2019, published 2022)
≈ marks a conversion by molar mass, not a printed value. Where two headings read alike, the source gives them in different places. Marks after values point to notes of the source that are not given here.

How the values were obtained:
K. pneumoniae = assay: Phase IIa baseline uropathogen susceptibility testing (CLSI broth microdilution); format: cell-based, Klebsiella pneumoniae; conditions: baseline isolate
Protocol: (§1) This phase IIa single center study evaluated the safety, tolerability, pharmacokinetics, and efficacy of oral gepotidacin 1500 mg BID for 5 days in female subjects with acute cystitis. Clean catch mid-stream urine specimens were obtained for quantitative culture by standard methods. Urine samples were taken from all participants pre-treatment (baseline) and at all post-baseline visits. All urine samples were sent to a central laboratory (PPD Global Clinical Laboratories, Highland Heights, Ky., USA) for Gram stain, quantitative culture, pathogen identification and susceptibility testing. See FIG. 1 for participant disposition and study outline.
(§2) Susceptibility testing by CLSI broth microdilution and gradient diffusion (fosfomycin only) was conducted (CLSI, 2015, Methods for dilution antimicrobial susceptibility tests for bacteria that grow aerobically; approved standard-tenth edition; and CLSI, 2018. Performance Standards for Antimicrobial Susceptibility Testing; Twenty-seventh Informational Supplement M100-S28). Inclusion in the microbiological intent-to-treat population (micro-ITT), required growth of a qualifying baseline uropathogen (≥10^5 CFU/mL). See FIG. 2 for the baseline algorithm.

C. koseri = assay: as above; format: cell-based, Citrobacter koseri; conditions: baseline isolate
Protocol: as §1, §2

E. coli = assay: as above; format: cell-based, Escherichia coli; conditions: baseline visit
Protocol: as §1, §2

[1] = system: Staphylococcus epidermidis; assay: MIC by CLSI broth microdilution in CAMHB and urine, Example 5 Method 2; format: cell-based; conditions: for Mean MIC: n = 4
Protocol: (§3) The compounds were tested in serial two-fold dilutions and the minimum inhibitory concentration (MIC) was determined as the lowest concentration of the compound that inhibited visible growth.
In particular, gepotidacin was tested against 4 strains of Staphylococcus epidermidis from the collection of isolates at Laboratory Specialists, Inc., Westlake, Ohio.
Levofloxacin was included as the comparator in the study to determine the effect of urine on the in vitro activity of gepotidacin against Staphylococcus epidermidis. MICs were determined by broth microdilution according CLSI methods.
(§4) The data shown in the table below are results from an in vitro study conducted with the same S. epidermidis isolates described above, to determine the effect of urine on the in vitro activity of gepotidacin and levofloxacin against S. epidermidis. Study strains were tested for MICs according to reference CLSI broth microdilution method using cation-adjusted Mueller Hinton Broth (CAMHB) and with the addition of 25%, 50% and 100% urine (not pH adjusted, pH 6.42) and 100% urine (pH adjusted, 7.31 and 8.07).

[2] = system: Staphylococcus saprophyticus; assay: MIC by CLSI broth microdilution in CAMHB and urine, Example 1 Method 3; format: cell-based; conditions: for Mean MIC: n = 6
Protocol: Antimicrobial activity was determined by broth microdilution using the CLSI recommended procedure.
as §3
In particular, gepotidacin was tested against 6 strains of Staphylococcus saprophyticus from the collection of isolates at Laboratory Specialists, Inc., Westlake, Ohio.
Levofloxacin was included as the comparator in the study to determine the effect of urine on the in vitro activity of gepotidacin against Staphylococcus saprophyticus. MICs were determined by broth microdilution according CLSI methods.
as §4, with “saprophyticus” for “epidermidis”, “saprophyticus.” for “epidermidis.”, “MICs (minimum inhibitory concentrations)” for “MICs”

[3] = system: gram-positive anaerobe organisms combined; assay: MIC by CLSI agar dilution, Example 6 Method 1; format: cell-based; conditions: gram-positive anaerobes combined; for MIC90: read-out: overall MIC90
Protocol: (§5) Antimicrobial activity was determined by agar dilution using the Clinical and Laboratory Standards Institute (CLSI) recommended procedure.
(§6) The compounds were tested in serial two-fold dilutions and the minimum inhibitory concentration (MIC) was determined as the lowest concentration of the compound that inhibited visible growth. Gepotidacin was tested against 333 gram-negative anaerobic and 203 gram-positive anaerobic isolates collected from clinical samples in North America and Europe from 2000 to 2017; the majority collected from 2013 to 2016.
(§7) Ceftriaxone, clindamycin, imipenem, metronidazole, moxifloxacin and piperacillin/tazobactam were included as comparators.

[4] = system: all the gram-negative anaerobe organisms combined; assay: MIC by CLSI agar dilution, Example 6 Method 1; format: cell-based; conditions: all gram-negative anaerobes combined; for MIC90: read-out: overall MIC90
Protocol: as §5, §6, §7

qualifying uropathogens = assay: Phase IIa baseline uropathogen susceptibility testing (CLSI broth microdilution); format: cell-based
Protocol: as §1, §2

viridans streptococci = assay: MIC by CLSI broth microdilution, Example 5 Method 1; format: cell-based; conditions: 105 isolates
Protocol: Gepotidacin was tested against 101 coagulase-negative staphylococci and 105 viridans streptococci in serial two-fold dilutions and the minimum inhibitory concentration (MIC) was determined as the lowest concentration of the compound that inhibited visible growth. All of the clinical isolates were collected in 2009-2012 from patient infections from North America, Europe, Latin America and Asia-Pacific medical centers and were mainly obtained from patients with documented nosocomial and community-acquired respiratory tract infections, bloodstream infections and skin and skin structure infections. Ceftriaxone, meropenem, penicillin, levofloxacin, moxifloxacin and linezolid were included as comparators when testing the viridans streptococci isolates. Oxacillin, levofloxacin, moxifloxacin and linezolid, were included as comparators when testing the coagulase-negative staphylococci isolates. MICs were determined by broth microdilution according to CLSI methods.

[5] = Escherichia coli, Participant #2 (E. coli), read-out: MIC
[6] = Escherichia coli, Participant #3 (E. coli), read-out: MIC
[7] = Escherichia coli, Participant #4 (E. coli), read-out: MIC
[8] = Escherichia coli, Participant #5 (E. coli, MDR and fluoroquinolone-resistant), read-out: MIC
[9] = Escherichia coli, Participant #6 (E. coli, MDR), read-out: MIC

CC1(C)S[C@@H]2[C@H](NC(=O)[C@H](N)c3ccccc3)C(=O)N2[C@H]1C(=O)O [Ampicillin]
Susceptibility of the qualifying uropathogen (K. pneumoniae): resistant | Susceptibility of the qualifying uropathogen (C. koseri): resistant | MIC (E. coli; [5]): > 64 µg/mL | MIC (E. coli; [6]): 2 µg/mL (≈ 5.72 µM) | MIC (E. coli; [7]): 1 µg/mL (≈ 2.86 µM) | MIC (E. coli; [8]): > 64 µg/mL | MIC (E. coli; [9]): > 64 µg/mL

Cc1nnc(SCC2=C(C(=O)O)N3C(=O)[C@@H](NC(=O)Cn4cnnn4)[C@H]3SC2)s1 [Cefazolin]
MIC (E. coli; [5]): 2 µg/mL (≈ 4.4 µM) | MIC (E. coli; [6]): 4 µg/mL (≈ 8.8 µM) | MIC (E. coli; [7]): 2 µg/mL (≈ 4.4 µM) | MIC (E. coli; [8]): 4 µg/mL (≈ 8.8 µM) | MIC (E. coli; [9]): 32 µg/mL (≈ 70.4 µM)

C[C@H]1COc2c(N3CCN(C)CC3)c(F)cc3c(=O)c(C(=O)O)cn1c23 [Levofloxacin, reference compound]
Mean Dilution Difference ([1]; 25% Urine (pH 7.09) vs CAMHB): 0.25 | Mean difference ([1]; 25% Urine (pH 7.09) vs CAMHB): 0.03 | N(%) ± 1 dilution ([1]; 25% Urine (pH 7.09) vs CAMHB): 4 (100%) | N(%) ± 2 dilution ([1]; 25% Urine (pH 7.09) vs CAMHB): 4 (100%) | Mean MIC ([1]; 25% Urine (pH 7.09)): 0.17 µg/mL | Mean Dilution Difference ([1]; 50% Urine (6.99) vs CAMHB): 0.25 | Mean difference ([1]; 50% Urine (6.99) vs CAMHB): 0.03 | N(%) ± 1 dilution ([1]; 50% Urine (6.99) vs CAMHB): 4 (100%) | N(%) ± 2 dilution ([1]; 50% Urine (6.99) vs CAMHB): 4 (100%) | Mean MIC ([1]; 50% Urine (6.99)): 0.17 µg/mL | Mean Dilution Difference ([1]; 100% Urine (pH 6.42) vs CAMHB): 0.51 | Mean difference ([1]; 100% Urine (pH 6.42) vs CAMHB): 0.06 | N(%) ± 1 dilution ([1]; 100% Urine (pH 6.42) vs CAMHB): 4 (100%) | N(%) ± 2 dilution ([1]; 100% Urine (pH 6.42) vs CAMHB): 4 (100%) | Mean MIC ([1]; 100% Urine (pH 6.42)): 0.21 µg/mL | Mean Dilution Difference ([1]; 100% Urine (pH 7.31) vs CAMHB): 0.78 | Mean difference ([1]; 100% Urine (pH 7.31) vs CAMHB): 0.10 | N(%) ± 1 dilution ([1]; 100% Urine (pH 7.31) vs CAMHB): 3 (75%) | N(%) ± 2 dilution ([1]; 100% Urine (pH 7.31) vs CAMHB): 4 (100%) | Mean MIC ([1]; 100% Urine (pH 7.31)): 0.25 µg/mL | Mean Dilution Difference ([1]; 100% Urine (pH 8.07) vs CAMHB): 1.78 | Mean difference ([1]; 100% Urine (pH 8.07) vs CAMHB): 0.35 | N(%) ± 1 dilution ([1]; 100% Urine (pH 8.07) vs CAMHB): 2 (50%) | N(%) ± 2 dilution ([1]; 100% Urine (pH 8.07) vs CAMHB): 3 (75%) | Mean Dilution Difference ([1]; 100% Urine (pH 8.07) vs CAMHB, listed as levofloxacin): approximately 1.8 | Mean MIC ([1]; 100% Urine (pH 8.07)): 0.5 µg/mL | Mean MIC ([1]; CAMHB (ref. method, pH 7.2)): 0.15 µg/mL | Mean Dilution Difference ([2]; 25% Urine (pH 7.09) vs CAMHB): 0.50 | Mean difference ([2]; 25% Urine (pH 7.09) vs CAMHB): 0.33 | N(%) ± 1 dilution ([2]; 25% Urine (pH 7.09) vs CAMHB): 6 (100%) | N(%) ± 2 dilution ([2]; 25% Urine (pH 7.09) vs CAMHB): 6 (100%) | Mean MIC ([2]; 25% Urine (pH 7.09)): 1.12 µg/mL | Mean Dilution Difference ([2]; 50% Urine (6.99) vs CAMHB): 0.17 | Mean difference ([2]; 50% Urine (6.99) vs CAMHB): 0.10 | N(%) ± 1 dilution ([2]; 50% Urine (6.99) vs CAMHB): 6 (100%) | N(%) ± 2 dilution ([2]; 50% Urine (6.99) vs CAMHB): 6 (100%) | Mean MIC ([2]; 50% Urine (6.99)): 0.89 µg/mL | Mean Dilution Difference ([2]; 100% Urine (pH 6.42) vs CAMHB): 0.67 | Mean difference ([2]; 100% Urine (pH 6.42) vs CAMHB): 0.47 | N(%) ± 1 dilution ([2]; 100% Urine (pH 6.42) vs CAMHB): 6 (100%) | N(%) ± 2 dilution ([2]; 100% Urine (pH 6.42) vs CAMHB): 6 (100%) | Mean MIC ([2]; 100% Urine (pH 6.42)): 1.26 µg/mL | Mean Dilution Difference ([2]; 100% Urine (pH 7.31) vs CAMHB): 1.50 | Mean difference ([2]; 100% Urine (pH 7.31) vs CAMHB): 1.45 | N(%) ± 1 dilution ([2]; 100% Urine (pH 7.31) vs CAMHB): 2 (33.3%) | N(%) ± 2 dilution ([2]; 100% Urine (pH 7.31) vs CAMHB): 6 (100%) | Mean MIC ([2]; 100% Urine (pH 7.31)): 2.24 µg/mL | Mean Dilution Difference ([2]; 100% Urine (pH 8.07) vs CAMHB): 1.17 | Mean difference ([2]; 100% Urine (pH 8.07) vs CAMHB): 0.99 | N(%) ± 1 dilution ([2]; 100% Urine (pH 8.07) vs CAMHB): 5 (83.3%) | N(%) ± 2 dilution ([2]; 100% Urine (pH 8.07) vs CAMHB): 6 (100%) | Mean MIC ([2]; 100% Urine (pH 8.07)): 1.78 µg/mL | Mean MIC ([2]; CAMHB (ref. method, pH 7.2)): 0.79 µg/mL

CO/N=C(\C(=O)N[C@@H]1C(=O)N2C(C(=O)O)=C(CSc3nc(=O)c(=O)[nH]n3C)CS[C@H]12)c1csc(N)n1 [ceftriaxone]
MIC90 [3]: 256 µg/mL | MIC90 [4]: 512 µg/mL

CCC[C@@H]1C[C@@H](C(=O)N[C@@H]([C@H]2O[C@H](SC)[C@H](O)[C@@H](O)[C@H]2O)[C@H](C)Cl)N(C)C1 [clindamycin]
MIC90 [3]: > 8 µg/mL | MIC90 [4]: > 8 µg/mL

C[C@@H]1O[C@@H]1P(=O)(O)O [fosfomycin]
Resistance among the baseline uropathogens recovered (qualifying uropathogens): None of the baseline uropathogens recovered were resistant

C[C@@H](O)[C@H]1C(=O)N2C(C(=O)O)=C(SCCN=CN)C[C@H]12 [imipenem]
MIC90 [3]: 8 µg/mL | MIC90 [4]: 0.5 µg/mL

C[C@@H](O)[C@H]1C(=O)N2C(C(=O)O)=C(S[C@@H]3CN[C@H](C(=O)N(C)C)C3)[C@H](C)[C@H]12 [meropenem]
Resistance among the baseline uropathogens recovered (qualifying uropathogens): None of the baseline uropathogens recovered were resistant | MIC90 (viridans streptococci): 0.25 µg/mL (≈ 0.652 µM)

Cc1ncc([N+](=O)[O-])n1CCO [metronidazole]
MIC90 [3]: 0.5 µg/mL | MIC90 [4]: 2 µg/mL

COc1c(N2C[C@@H]3CCCN[C@@H]3C2)c(F)cc2c(=O)c(C(=O)O)cn(C3CC3)c12 [moxifloxacin]
MIC90 (viridans streptococci): 0.25 µg/mL (≈ 0.623 µM) | MIC90 [3]: > 8 µg/mL | MIC90 [4]: 8 µg/mL

Trimethoprim-sulfamethoxazole
MIC (E. coli; Participant #2 (E. coli)): 0.03 µg/mL | MIC (E. coli; Participant #3 (E. coli)): 0.03 µg/mL | MIC (E. coli; Participant #4 (E. coli)): 0.03 µg/mL | MIC (E. coli; Participant #5 (E. coli, MDR and fluoroquinolone-resistant)): >8^b μg/mL | MIC (E. coli; Participant #6 (E. coli, MDR)): >8^b μg/mL

piperacillin/tazobactam
Resistance among the baseline uropathogens recovered (qualifying uropathogens): None of the baseline uropathogens recovered were resistant | overall MIC90 [3]: 16 µg/mL | overall MIC90 [4]: 16 µg/mL
